In patent US12285402B2, “Compositions and methods for treating pulmonary disorders” (GNT Pharma Co., Ltd., priority 2021, dated 2025):

Key:
[1] = tested on: PPE-induced COPD model mice; test: Porcine pancreatic elastase (PPE)-induced emphysema model, post-treatment; type: in vivo, C57BL/6J mice; settings: started 3 days after PPE, sacrifice day 21
Description: Porcine Pancreatic Elastase (PPE)-induced emphysema model was used to measure the post-treatment effects of ATPB in COPD model mice. C57BL/6J mice were intratracheally injected with PPE (0.8 U per mouse) in PBS via a micropipette. The mice were randomly divided into […]: (A) emphysema group, which was exposed to intratracheal PPE; (B) emphysema+ATPB (5 mg/kg ATPB, PO, bid); (C) emphysema +ATPB (10 mg/kg ATPB, PO, bid); (D) emphysema +roflumilast (10 mg/kg, PO, qd); and (E) emphysema +prednisolone (1 mg/kg, PO, qd). All treatments were started 3 days after the PPE injection. Mice were sacrificed 21 days after the PPE injection.
(§1) Rats and mice were sacrificed, and BALF was obtained by cannulating the trachea and lavage three times with 2 mL DPBS. BALF cells were centrifuged at 1000×g for 10 min at 4° C. The supernatants were collected and stored at −80° C. to measure inflammatory factors. The pelleted BALF cells were resuspended in 1 mL PBS and quantified using a hematology analyzer (Mindray Medical International Ltd., Shenzhen, China).

OVA-challenged mice = test: OVA-induced mouse asthma model; type: in vivo, Balb/C mice
Description: Seven-week-old female Balb/C mice were sensitized by intraperitoneal injection (IP, 200 μL/mouse) of 100 μg OVA complexed with aluminum potassium sulfate on days 0, 7, and 14. On days 26, 27, and 28, mice were challenged with 5% aerosolized OVA in 48 mL sterile phosphate-buffered saline (PBS). The control group received sterile PBS with aluminum potassium sulfate via the IP route on days 0, 7, 14, and 48 mL of aerosolized sterile PBS on days 26, 27, and 28. Mice in the ATPB group were orally administered 10 mg/kg bid ATPB on days […], 27, 28, and 29.
as §1

[2] = tested on: smoking-induced COPD rats; test: Rat model of COPD by smoke exposure and intratracheal LPS; type: in vivo; settings: for IL-6 gene expression in the lungs (RT-PCR) / MCP-1 gene expression in the lungs (RT-PCR) / TNF-α gene expression in the lungs (RT-PCR): FIG. 7, P<0.01 or P<0.05
Description: As described previously, the rat model of COPD was established by smoke exposure and intratracheal instillation of lipopolysaccharide (LPS). Experimental rats, including the COPD and drug-treated groups (10 mg/kg ATPB), underwent whole-body exposure to tobacco smoke from 10 cigarettes in a tobacco smoke chamber (90×40×30 cm, made of Plexiglas) twice a day with 2-hour smoke-free intervals, every day for 12 weeks.
Animals from the two smoke-exposed groups were administered 180 μg/180 μL of LPS solution intratracheally on two occasions, on the first and 14th days of tobacco smoke exposure. Additionally, rats in the ATPB group were orally administered ATPB (10 mg/kg ATPB). All rats were sacrificed on the 91st day.
as §1
Total RNA from the lung tissue was extracted using TRIzol reagent (Invitrogen) according to the manufacturer's instructions. cDNA was synthesized using a cDNA Synthesis Kit (Life Technologies). SYBR Green Master Mix (Thermo Fisher) was used for PCR amplification on a StepOnePlus Real-Time PCR System (Applied Biosystems, Foster City, Calif., USA).
The lungs of the rats were removed at week 12 and fixed in 10% neutral buffered formalin for histopathological analysis. Formalin-fixed tissues were embedded in paraffin, sectioned at […], and stained with hematoxylin and eosin (HE) and Alcian blue-periodic acid-Schiff (AB-PAS) to reveal histopathological lesions.

[3] = ATPB 10 mg/kg bid oral, vs OVA-challenged mice, FIG. 2
[4] = ATPB 10 mg/kg bid oral, vs vehicle group, FIG. 3
[5] = ATPB 10 mg/kg, vs OVA-challenged mice, FIG. 4
[6] = ATPB 10 mg/kg, vs COPD rats, FIG. 6

Structure (SMILES): CC(=O)Oc1ccc(NCCc2ccc(C(F)(F)F)cc2)cc1C(=O)O [ATPB, 2-acetoxy-5-[2-(4-trifluoromethyl-phenyl)-ethylamino]-benzoic acid]
- number of WBC in BALF ([1]; 10 mg/kg ATPB PO bid, vs vehicle, FIG. 8, P<0.05): significantly reduced
- IL-4 production in BALF (ELISA) (OVA-challenged mice; [3]): significantly downregulated
- IL-5 production in BALF (ELISA) (OVA-challenged mice; [3]): significantly downregulated
- production of IgE in the serum (ELISA) (OVA-challenged mice; ATPB 10 mg/kg bid oral, vs OVA-challenged mice, serum 24 h after last OVA challenge): significantly reduced
- EO (eosinophil) cell count in BALF (OVA-challenged mice; [4]): markedly reduced
- LY (lymphocyte) cell count in BALF (OVA-challenged mice; [4]): markedly reduced
- MO (monocyte) cell count in BALF (OVA-challenged mice; [4]): markedly reduced
- WBC cell count in BALF (OVA-challenged mice; [4]): markedly reduced
- cell infiltration into peribranchial lung lesions (H&E staining) (OVA-challenged mice; [5]): notably downregulated
- mucus hypersecretion in the bronchial airways (PAS staining) (OVA-challenged mice; [5]): attenuated
- OVA-induced inflammatory cell counts in BALF (OVA-challenged mice; after last OVA challenge, FIG. 3 legend): significantly reduced
- OVA-induced eotaxin production (OVA-challenged mice; mouse asthma model): attenuated
- OVA-specific IgE levels in serum (ELISA) (OVA-challenged mice; serum 24 h after last OVA aerosol challenge, FIG. 1): significantly lowered
- number of WBCs in BALF ([2]; ATPB 10 mg/kg oral, LPS and chronic smoking, 12 weeks, vs vehicle group, FIG. 5): markedly reduced
- alveolar sacs and alveolar spaces enlargement (H&E lung histopathology) ([2]; ATPB 10 mg/kg oral, vs COPD group, FIG. 6): relieved
- goblet cell proliferation (PAS+ cells) [2, 6]: decreased
- mucous secretion (PAS staining) [2, 6]: reduced levels
- IL-6 gene expression in the lungs (RT-PCR) ([2]; vs COPD group): decreased
- MCP-1 gene expression in the lungs (RT-PCR) ([2]; vs COPD group): decreased
- TNF-α gene expression in the lungs (RT-PCR) ([2]; vs COPD group): decreased

Structure (SMILES): C[C@]12C=CC(=O)C=C1CC[C@@H]1[C@@H]2[C@@H](O)C[C@@]2(C)[C@H]1CC[C@]2(O)C(=O)CO [prednisolone, reference compound]
- number of WBC in BALF ([1]; prednisolone 1 mg/kg PO qd, FIG. 8): Neither roflumilast nor prednisolone reduced the WBC count
- IL-6 gene expression in the lungs (RT-PCR) ([2]; vs COPD group): decreased
- MCP-1 gene expression in the lungs (RT-PCR) ([2]; vs COPD group): decreased
- TNF-α gene expression in the lungs (RT-PCR) ([2]; vs COPD group): decreased

Structure (SMILES): O=C(Nc1c(Cl)cncc1Cl)c1ccc(OC(F)F)c(OCC2CC2)c1 [roflumilast]
- number of WBC in BALF ([1]; roflumilast 10 mg/kg PO qd, FIG. 8): Neither roflumilast nor prednisolone reduced the WBC count
